This is an account of results in ChEMBL document CHEMBL3632577, “Lead optimization of the VU0486321 series of mGlu1 PAMs. Part 1: SAR of modifications to the central aryl core” (Bioorg Med Chem Lett, 2015).

For series [1], the system named is Plasma. The experiment in a line: Fraction unbound in human plasma. The format is ADME, cell-free.
Series [2] addresses T1, Metabotropic glutamate receptor 1 (Homo sapiens, UniProt Q13255). The series can be described thus: Positive allosteric modulation of human mGluR1 by calcium mobilization assay relative to control. The format is functional. (Calcium flux is commonly read through the fluorescence of an indicator in the cells.)
Target sequence in this assay (Q13255 19-1194 limits assumed): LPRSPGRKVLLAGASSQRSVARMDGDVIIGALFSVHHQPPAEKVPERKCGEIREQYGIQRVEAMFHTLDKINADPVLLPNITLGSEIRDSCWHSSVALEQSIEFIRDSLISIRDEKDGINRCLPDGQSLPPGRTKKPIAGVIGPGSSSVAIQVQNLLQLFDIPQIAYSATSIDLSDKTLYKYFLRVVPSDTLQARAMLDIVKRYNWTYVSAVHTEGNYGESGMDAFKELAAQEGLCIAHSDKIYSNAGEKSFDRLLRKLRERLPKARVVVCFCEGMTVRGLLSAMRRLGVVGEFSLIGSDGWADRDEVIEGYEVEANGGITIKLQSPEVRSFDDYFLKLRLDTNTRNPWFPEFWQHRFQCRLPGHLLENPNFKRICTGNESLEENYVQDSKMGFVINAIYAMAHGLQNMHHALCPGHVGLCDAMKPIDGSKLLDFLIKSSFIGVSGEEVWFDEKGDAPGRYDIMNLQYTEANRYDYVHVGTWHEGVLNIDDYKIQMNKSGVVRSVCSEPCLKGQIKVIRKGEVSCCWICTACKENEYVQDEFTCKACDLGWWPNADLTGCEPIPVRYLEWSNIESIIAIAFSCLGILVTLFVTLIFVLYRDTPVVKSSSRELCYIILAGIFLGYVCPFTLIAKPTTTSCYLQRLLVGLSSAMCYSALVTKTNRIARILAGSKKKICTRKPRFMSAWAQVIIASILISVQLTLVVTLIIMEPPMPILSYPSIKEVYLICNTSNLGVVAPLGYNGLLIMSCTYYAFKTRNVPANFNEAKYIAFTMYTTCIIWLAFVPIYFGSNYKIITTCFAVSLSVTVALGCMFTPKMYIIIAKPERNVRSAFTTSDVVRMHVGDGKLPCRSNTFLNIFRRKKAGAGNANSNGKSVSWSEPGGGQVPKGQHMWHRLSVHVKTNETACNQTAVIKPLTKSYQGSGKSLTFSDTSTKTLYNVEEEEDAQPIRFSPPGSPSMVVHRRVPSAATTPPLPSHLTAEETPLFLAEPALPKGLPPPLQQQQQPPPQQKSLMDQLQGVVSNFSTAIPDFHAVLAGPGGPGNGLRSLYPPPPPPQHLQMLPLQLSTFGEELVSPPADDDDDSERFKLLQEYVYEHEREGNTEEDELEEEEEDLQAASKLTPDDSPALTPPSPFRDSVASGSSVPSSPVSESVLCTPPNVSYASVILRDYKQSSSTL
Series [3] addresses T2, Metabotropic glutamate receptor 4 (Homo sapiens, UniProt Q14833). The series can be described thus: Positive allosteric modulation of human mGluR4 by calcium mobilization assay. The format is functional.
Series [4] deals with Brain. The experiment in a line: Fraction unbound in rat brain. The format is ADME, tissue-based.
Series [5] has as its system Plasma. The experiment in a line: Fraction unbound in rat plasma. The class given is ADME, cell-free.
For series [6], the target named is T1, Metabotropic glutamate receptor 1. The series can be described thus: Positive allosteric modulation of human mGluR1 by calcium mobilization assay. The class given is functional.
Target sequence in this assay (Q13255 whole entry): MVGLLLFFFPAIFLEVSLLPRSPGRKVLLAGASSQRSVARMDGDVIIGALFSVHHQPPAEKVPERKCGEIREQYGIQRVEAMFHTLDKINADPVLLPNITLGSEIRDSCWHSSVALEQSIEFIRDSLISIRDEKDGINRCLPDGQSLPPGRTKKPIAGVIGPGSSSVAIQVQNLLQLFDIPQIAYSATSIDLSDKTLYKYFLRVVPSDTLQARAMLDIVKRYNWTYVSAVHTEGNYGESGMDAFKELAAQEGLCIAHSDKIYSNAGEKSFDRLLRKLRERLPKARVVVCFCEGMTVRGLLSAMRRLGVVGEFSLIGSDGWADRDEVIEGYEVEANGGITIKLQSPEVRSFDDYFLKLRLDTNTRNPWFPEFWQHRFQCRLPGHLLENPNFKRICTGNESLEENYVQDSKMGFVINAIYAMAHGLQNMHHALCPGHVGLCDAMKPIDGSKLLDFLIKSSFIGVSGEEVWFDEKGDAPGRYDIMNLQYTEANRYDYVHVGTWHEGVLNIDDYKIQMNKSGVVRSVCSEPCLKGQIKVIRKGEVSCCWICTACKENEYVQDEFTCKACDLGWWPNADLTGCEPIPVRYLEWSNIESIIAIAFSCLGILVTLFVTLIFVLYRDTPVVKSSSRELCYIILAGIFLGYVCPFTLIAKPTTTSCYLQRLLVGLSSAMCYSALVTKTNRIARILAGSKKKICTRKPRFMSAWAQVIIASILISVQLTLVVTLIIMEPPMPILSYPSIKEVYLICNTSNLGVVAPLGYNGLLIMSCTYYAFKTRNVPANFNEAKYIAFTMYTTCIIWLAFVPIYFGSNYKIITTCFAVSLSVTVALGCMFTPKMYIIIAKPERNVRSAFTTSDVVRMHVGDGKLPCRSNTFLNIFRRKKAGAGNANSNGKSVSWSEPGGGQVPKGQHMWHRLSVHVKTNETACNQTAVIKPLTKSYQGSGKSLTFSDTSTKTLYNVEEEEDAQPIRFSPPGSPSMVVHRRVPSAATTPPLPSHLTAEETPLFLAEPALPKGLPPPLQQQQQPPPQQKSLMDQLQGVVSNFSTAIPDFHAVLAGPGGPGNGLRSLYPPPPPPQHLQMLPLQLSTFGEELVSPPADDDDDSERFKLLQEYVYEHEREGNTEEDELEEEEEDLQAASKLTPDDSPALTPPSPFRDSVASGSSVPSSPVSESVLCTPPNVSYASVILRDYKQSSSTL
The subject of series [7] is Rattus norvegicus. The series can be described thus: Ratio of drug level in plasma to brain in rat at 0.2 mg/kg after 15 mins by cassette study. The following applies: in vivo, 0.25 h.
Series [8] has as its target T2, Metabotropic glutamate receptor 4. The experiment in a line: Positive allosteric modulation of human mGluR4 by calcium mobilization assay relative to PHCCC. The format is functional.
The species entered for series [9] is Homo sapiens. The series can be described thus: Selectivity ratio of EC50 for human mGluR4 to EC50 for human mGluR1.

T2 sequence (Q14833 whole entry): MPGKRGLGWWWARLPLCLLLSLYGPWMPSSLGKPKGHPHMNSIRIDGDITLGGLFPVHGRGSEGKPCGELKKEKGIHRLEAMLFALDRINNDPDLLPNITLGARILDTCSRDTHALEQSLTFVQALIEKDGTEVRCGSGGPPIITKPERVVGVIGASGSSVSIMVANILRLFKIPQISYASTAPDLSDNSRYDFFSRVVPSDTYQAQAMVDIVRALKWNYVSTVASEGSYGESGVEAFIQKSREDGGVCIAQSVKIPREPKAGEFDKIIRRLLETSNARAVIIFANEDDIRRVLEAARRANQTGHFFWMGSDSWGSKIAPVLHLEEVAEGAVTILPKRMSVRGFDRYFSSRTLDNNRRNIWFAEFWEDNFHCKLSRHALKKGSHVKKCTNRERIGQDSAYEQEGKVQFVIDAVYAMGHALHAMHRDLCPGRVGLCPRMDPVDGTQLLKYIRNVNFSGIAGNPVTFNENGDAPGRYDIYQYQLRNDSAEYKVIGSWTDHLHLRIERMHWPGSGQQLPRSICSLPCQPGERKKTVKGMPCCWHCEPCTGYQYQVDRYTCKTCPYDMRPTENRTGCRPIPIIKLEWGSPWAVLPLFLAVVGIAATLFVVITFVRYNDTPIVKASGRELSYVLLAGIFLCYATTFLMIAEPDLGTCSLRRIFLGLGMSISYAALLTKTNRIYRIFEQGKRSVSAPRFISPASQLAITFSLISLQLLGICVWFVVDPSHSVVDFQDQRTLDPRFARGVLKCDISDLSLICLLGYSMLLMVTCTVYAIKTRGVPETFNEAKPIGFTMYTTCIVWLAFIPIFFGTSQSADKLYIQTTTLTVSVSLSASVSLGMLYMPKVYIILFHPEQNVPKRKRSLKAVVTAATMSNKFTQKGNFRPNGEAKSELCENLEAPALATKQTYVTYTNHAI

For the molecule `Cc1ccoc1C(=O)Nc1ccc(N2C(=O)c3ccccc3C2=O)cc1F`, the Fu in series [1], in [4] and in series [5] was < 1% each time. In series [2], the %max worked out at 84%. Further, the EC50 (commonly the concentration at which the effect is half-maximal) was > 10000 nM in [3], 12.6 nM in [6] and 13 nM in series [6] (read-out: EC50). Also, the Ratio in series [7] is reported as 1.57.
As for `Cc1ccoc1C(=O)Nc1ccc(N2C(=O)c3ccccc3C2=O)cc1Cl`, the Fu in [1], in [4] and in [5] was < 1% in each case. For the same molecule, in series [2], the %max stood at 68%. Also, the EC50 is > 10000 nM in [3], 28.8 nM in series [6] and 29 nM in series [6] (read-out: EC50). Further, the Ratio in series [7] came to 0.12.
`Cc1ccoc1C(=O)Nc1ccc(N2C(=O)c3cccc(C)c3C2=O)c(C(F)(F)F)c1`: the %max in [8] turned out to be 109%; in series [2], 117%. In series [9], the Ratio EC50 was determined as 10.8. In addition, the EC50 was 5760 nM in [3], 537 nM in [6] and 530 nM in series [6] (read-out: EC50).
Take `COc1cc(NC(=O)c2occc2C)ccc1N1C(=O)c2ccccc2C1=O`: the %max in [8] was determined as 50%; in series [2], 96%. In addition, in [9], the Ratio EC50 came to 25.6. Further, the concentration giving a half-maximal response (EC50) in [3] stood at 1180 nM; in series [6], 46.8 nM; in series [6] (read-out: EC50), 46 nM.
